In US7811797B2, “α-isomaltosylglucosaccharide-forming enzyme, process and uses of the same” (Kabushiki Kaisha Hayashibara Seibutsu Kagaku Kenkyujo, priority 2000, dated 2010):

Tests used:
[1] = Saturation concentration of cyclotetrasaccharide in water; format: physicochemical
From the text: Each resulting saturated solution of cyclotetrasaccharide was membrane filtered to remove undissolved cyclotetrasaccharide, and each filtrate was then examined for moisture content by the drying loss method to determine a saturation concentration of cyclotetrasaccharide at respective temperatures.

[2] = system: Bifidobacterium adolescentis JCM 1275; test: Assimilation test, Bifidobacterium adolescentis; format: cell-based; settings: PYF medium with 0.5% saccharide, 37° C., four days, anaerobic
[3] = system: Escherichia coli IFO 3301; test: Assimilation test, Escherichia coli; format: cell-based; settings: PYF medium with 0.5% saccharide, 37° C., four days, anaerobic
[4] = system: Small intestinal mucosal enzyme
[5] = system: α-isomaltosylglucosaccharide-forming enzyme; test: Action on saccharides (substrates), Enzyme of Strain C11; format: biochemical, Bacillus globisporus C11; set-up: key: −: it showed no change; +: it showed a slight reduction of the color spot of the substrate and the formation of other reaction product; ++: it showed a high reduction of the color spot of the substrate and the formation of other reaction product; +++: it showed a substantial disappearance of the substrate spot and the formation of other reaction product; settings: two units/g substrate, substrate 2% (w/v), 30° C., pH 6.0, 24 hours, TLC
How it was run: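 Purified enzyme from each strain was added at 2 units/g substrate to each of 24 saccharides at 2% (w/v). Incubation ran 24 h at 30° C, pH 6.0, or pH 8.4 for the A19 enzyme. TLC compared reaction mixtures before and after incubation to show whether each substrate was acted on.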

[6] = system: α-isomaltosylglucosaccharide-forming enzyme; test: Transfer-acceptor specificity, Enzyme of Strain A19; format: biochemical, Arthrobacter globiformis A19; settings: acceptor 1.6%, PINE-DEX #100 donor 4%, one unit/g donor, 30° C., pH 8.4, 24 hours
How it was run: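 Each candidate acceptor at 1.6% was combined with 4% partial starch hydrolysate donor and 1 unit/g donor (d.s.b.) of purified enzyme. Incubation ran 24 h at 30 °C, pH 6.0 for the C9, C11 and N75 enzymes and pH 8.4 for A19. Transfer products were detected by GLC for mono- and disaccharide acceptors and HPLC for trisaccharide acceptors.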

Amylopsin = target: T1, Amylopsin (Homo sapiens, UniProt P04746); test: Digestion test in vitro, amylopsin
T1 sequence (P04746 16-511): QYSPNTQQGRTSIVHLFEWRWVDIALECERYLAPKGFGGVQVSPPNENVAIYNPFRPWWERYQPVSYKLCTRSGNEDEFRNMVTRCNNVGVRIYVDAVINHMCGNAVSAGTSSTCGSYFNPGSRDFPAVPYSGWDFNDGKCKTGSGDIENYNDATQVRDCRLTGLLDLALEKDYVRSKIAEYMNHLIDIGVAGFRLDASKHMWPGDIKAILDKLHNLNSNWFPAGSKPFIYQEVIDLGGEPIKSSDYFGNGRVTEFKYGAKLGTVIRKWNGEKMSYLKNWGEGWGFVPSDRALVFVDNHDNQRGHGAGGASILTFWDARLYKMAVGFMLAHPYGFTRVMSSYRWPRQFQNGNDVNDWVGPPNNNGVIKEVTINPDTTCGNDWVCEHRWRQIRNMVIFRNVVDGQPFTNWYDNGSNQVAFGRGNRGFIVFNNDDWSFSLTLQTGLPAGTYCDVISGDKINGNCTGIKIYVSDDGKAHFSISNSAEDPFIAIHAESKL

[7] = Digestion test in vitro, synthetic gastric juice

Row | Structure (SMILES) | Saturation concentration (%) ([1]; 10° C.) | Saturation concentration (%) ([1]; 30° C.) | Saturation concentration (%) ([1]; 50° C.) | Saturation concentration (%) ([1]; 70° C.) | Saturation concentration (%) ([1]; 90° C.) | Assimilability [2] | Assimilability [3] | Decomposition percentage (%) by digestive enzyme [4] [%] | digestibility relative to that of maltitol [4] | Enzymatic action, Enzyme of Strain C11 [5] | Product of transferring reaction, Enzyme of Stain A19 [6] | Decomposition percentage (%) by digestive enzyme (Amylopsin) [%] | Decomposition percentage (%) by digestive enzyme [7] [%]
1 | OCC1OC2OCC3O[C@H](O[C@H]4C(O)C(CO)OC(OCC5O[C@H](O[C@@H](C1O)C2O)C(O)C(O)[C@@H]5O)C4O)C(O)C(O)[C@@H]3O (stereo partly drawn) [Cyclotetrasaccharide, cyclo{→6)-α-D-glucopyranosyl-(1→3)-α-D-glucopyranosyl-(1→6)-α-D-glucopyranosyl-(1→3)-α-D-glucopyransoyl-(1→}] | 30.3 | 34.2 | 42.6 | 53.0 | 70.5 | − (judged negative (−) when the post culture had a pH of 6.0 or higher) | − (judged negative (−) when the post culture had a pH of 6.0 or higher) | 0.74 | ⅕ |  |  |  | 
2 | OC[C@@H](O)[C@@H](O[C@H]1O[C@H](CO)[C@@H](O)[C@H](O)[C@H]1O)[C@H](O)[C@@H](O)CO [Maltitol, reference compound] |  |  |  |  |  |  |  |  |  | − | ++ (a saccharide-transferred product was detected in an amount over ten percent through transfer reaction to acceptor) | 0.0 | 0.0
